Measured values reported in patent US20090197856A1, “ANTIVIRAL COMPOUNDS” (Genelabs Technologies, Inc., priority 2007, published 2009).

molecular target: T1, NS5B (Hepatitis C virus genotype 1b, UniProt Q9WMX2); assay: Polymerase assay, incorporation of radiolabeled GTP with biotinylated oligoG13 primer and polycytidylic acid RNA template; format: biochemical; settings: polyC RNA template, biotin-oligoG13 primer, tritiated GTP, 3 nM NS5B, 30° C., 2 hours
T1 construct: 3 nM NS5B, 20 nM polyC RNA template
Method: The polymerase activity was also assayed by measuring incorporation of radiolabeled GTP into an RNA product using a biotinylated oligoG13 primer with a polycytidylic acid RNA template. Typically, the assay mixture (40 μL) contains 50 mM HEPES (pH 7.3), 2.5 mM magnesium acetate, 2 mM sodium chloride, 37.5 mM potassium acetate, 5 mM DTT, 0.4 U/mL RNasin, 2.5% glycerol, 3 nM NS5B, 20 nM polyC RNA template, 20 nM biotin-oligoG13 primer, and 0.2 μM tritiated guanosine triphosphate. Test compounds were initially dissolved and diluted in 100% DMSO and further diluted into aqueous buffer, producing a final concentration of 5% DMSO. Typically, compounds were tested at concentrations between 0.2 nM and 10 μM. Reactions were started with addition of tritiated guanosine triphosphate and allowed to continue at 30° C. for 2 hours. Reactions were quenched with 100 μL stop buffer containing 10 mM EDTA and 1 μg/mL streptavidin-coated scintillation proximity beads. Reaction plates were incubated at 4° C. for 10 hours and then incorporation of radioactivity was determined by scintillation counting. The table below lists the IC50 values of compounds determined using this procedure.

T1 sequence (Q9WMX2 2420-3010): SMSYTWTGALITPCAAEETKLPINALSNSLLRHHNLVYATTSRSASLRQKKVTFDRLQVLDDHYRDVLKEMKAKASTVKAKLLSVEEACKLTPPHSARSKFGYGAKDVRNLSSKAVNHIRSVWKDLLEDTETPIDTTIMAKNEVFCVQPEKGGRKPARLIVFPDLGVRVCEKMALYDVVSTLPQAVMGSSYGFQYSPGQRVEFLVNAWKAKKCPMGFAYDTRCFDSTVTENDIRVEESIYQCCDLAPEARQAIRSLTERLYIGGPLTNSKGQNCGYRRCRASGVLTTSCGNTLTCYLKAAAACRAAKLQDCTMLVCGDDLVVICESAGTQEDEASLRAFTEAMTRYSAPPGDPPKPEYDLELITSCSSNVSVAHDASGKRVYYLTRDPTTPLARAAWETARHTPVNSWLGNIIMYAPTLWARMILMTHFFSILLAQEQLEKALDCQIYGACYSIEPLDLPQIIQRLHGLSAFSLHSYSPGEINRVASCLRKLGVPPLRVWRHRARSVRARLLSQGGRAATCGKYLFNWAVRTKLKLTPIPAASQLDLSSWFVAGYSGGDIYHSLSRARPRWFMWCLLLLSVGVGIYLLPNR

Row | IC50 | Structure (SMILES)
1 | 15 nM | CC1(C)CN2CCCn3c(c(C4CCCCC4)c4ccc(C(=O)O)cc43)-c3cccc1c32 [Compound 271, 12-cyclohexyl-1,1-dimethyl-1,2,5,6-tetrahydro-4H-[1,5]diazocino[1,2-a:5,4,3-h′i′]diindole-9-carboxylic acid]
2 | 30 nM | CN1CCC2(C1)C(=O)N1CCCn3c(c(C4CCCCC4)c4ccc(C(=O)O)cc43)-c3cccc2c31 (centres unmarked) [Compound 272, 12-cyclohexyl-1′-methyl-2-oxo-5,6-dihydro-4H-spiro[1,5-diazocino[1,2-a:5,4,3-h′i′]diindole-1,3′-pyrrolidine]-9-carboxylic acid]
3 | 4.39 nM | NC1CCN2CCn3c(c(C4CCCCC4)c4ccc(C(=O)O)cc43)-c3cccc1c32 (centres unmarked) [Compound 273, 4-Amino-15-cyclohexyl-5,6,8,9-tetrahydro-4H-indolo[1′,2′:4,5][1,4]diazepino[6,7,1-ij]quinoline-12-carboxylic acid]
4 | 2.45 nM | N[C@@H]1CCN2CCn3c(c(C4CCCCC4)c4ccc(C(=O)O)cc43)-c3cccc1c32 [Compound 274, (4R)-4-amino-15-cyclohexyl-5,6,8,9-tetrahydro-4H-indolo[1′,2′:4,5][1,4]diazepino[6,7,1-ij]quinoline-12-carboxylic acid]
5 | 10.1 nM | N[C@H]1CCN2CCn3c(c(C4CCCCC4)c4ccc(C(=O)O)cc43)-c3cccc1c32 [Compound 275]
6 | 2.57 nM | CC(C)CNC1CCN2CCn3c(c(C4CCCCC4)c4ccc(C(=O)O)cc43)-c3cccc1c32 (centres unmarked) [Compound 278]
7 | 4.02 nM | O=C(O)c1ccc2c(C3CCCCC3)c3n(c2c1)CCN1CCC(NC2CCC2)c2cccc-3c21 (centres unmarked) [Compound 279]
8 | 4.3 nM | COCCNC1CCN2CCn3c(c(C4CCCCC4)c4ccc(C(=O)O)cc43)-c3cccc1c32 (centres unmarked) [Compound 283]
9 | 6.22 nM | NCCNC1CCN2CCn3c(c(C4CCCCC4)c4ccc(C(=O)O)cc43)-c3cccc1c32 (centres unmarked) [Compound 284]
10 | 4.33 nM | CCN(CC)C1CCN2CCn3c(c(C4CCCCC4)c4ccc(C(=O)O)cc43)-c3cccc1c32 (centres unmarked) [Compound 286]
11 | 2.71 nM | O=C(O)c1ccc2c(C3CCCCC3)c3n(c2c1)CCN1CCC(N2CCCC2)c2cccc-3c21 (centres unmarked) [Compound 287, 15-Cyclohexyl-4-pyrrolidin-1-yl-5,6,8,9-tetrahydro-4H-indolo[1′,2′:4,5][1,4]diazepino[6,7,1-ij]quinoline-12-carboxylic acid]
12 | 1.8 nM | O=C(O)c1ccc2c(C3CCCCC3)c3n(c2c1)CCN1CCC(N2CCCCC2)c2cccc-3c21 (centres unmarked) [Compound 288]
13 | 2.03 nM | O=C(O)c1ccc2c(C3CCCCC3)c3n(c2c1)CCN1CCC(N2CCOCC2)c2cccc-3c21 (centres unmarked) [Compound 289]
14 | 1.62 nM | CCN(CC)[C@@H]1CCN2CCn3c(c(C4CCCCC4)c4ccc(C(=O)O)cc43)-c3cccc1c32 [Compound 290]
15 | 1.94 nM | CCCN[C@@H]1CCN2CCn3c(c(C4CCCCC4)c4ccc(C(=O)O)cc43)-c3cccc1c32 [Compound 291]
16 | 2.02 nM | CC(C)N[C@@H]1CCN2CCn3c(c(C4CCCCC4)c4ccc(C(=O)O)cc43)-c3cccc1c32 [Compound 292, (4R)-15-cyclohexyl-4-(isopropylamino)-5,6,8,9-tetrahydro-4H-indolo[1′,2′:4,5][1,4]diazepino[6,7,1-ij]quinoline-12-carboxylic acid]
17 | 1.71 nM | CC(=O)N[C@@H]1CCN2CCn3c(c(C4CCCCC4)c4ccc(C(=O)O)cc43)-c3cccc1c32 [Compound 293, (4R)-4-Acetamido-15-cyclohexyl-5,6,8,9-tetrahydro-4H-indolo[1′,2′:4,5][1,4]diazepino[6,7,1-ij]quinoline-12-carboxylic acid]
18 | 1.55 nM | CC(C)(C)OC(=O)N[C@@H]1CCN2CCn3c(c(C4CCCCC4)c4ccc(C(=O)O)cc43)-c3cccc1c32 [Compound 294]
19 | 1.01 nM | CC(C)(C)NC(=O)N[C@@H]1CCN2CCn3c(c(C4CCCCC4)c4ccc(C(=O)O)cc43)-c3cccc1c32 [Compound 296, (4R)-4-[(tert-Butylcarbamoyl)amino]-15-cyclohexyl-5,6,8,9-tetrahydro-4H-indolo[1′,2′:4,5][1,4]diazepino[6,7,1-ij]quinoline-12-carboxylic acid]
20 | 1.67 nM | O=C(NCCN1CCCC1)N[C@@H]1CCN2CCn3c(c(C4CCCCC4)c4ccc(C(=O)O)cc43)-c3cccc1c32 [Compound 297]
21 | 7.17 nM | N[C@@H]1CCN2CCn3c(c(C4CCCCC4)c4ccc(C(=O)NC5CC5)cc43)-c3cccc1c32 [Compound 298, (4R)-4-amino-15-cyclohexyl-N-cyclopropyl-5,6,8,9-tetrahydro-4H-indolo[1′,2′:4,5][1,4]diazepino[6,7,1-ij]quinoline-12-carboxamide]
22 | 1 nM | CN(C)S(=O)(=O)NC(=O)c1ccc2c(C3CCCCC3)c3n(c2c1)CCN1CC[C@@H](N)c2cccc-3c21 [Compound 299, (4R)-4-amino-15-cyclohexyl-N-[(dimethylamino)sulfonyl]-5,6,8,9-tetrahydro-4H-indolo[1′,2′:4,5][1,4]diazepino[6,7,1-ij]quinoline-12-carboxamide]

Row | IC50 | Structure (SMILES)
23 | 0.769 nM | CC(C)N1CCC[C@H]1C(=O)N[C@@H]1CCN2CCn3c(c(C4CCCCC4)c4ccc(C(=O)O)cc43)-c3cccc1c32 [Compound 300, (4R)-15-cyclohexyl-4-[(1-isopropyl-L-prolyl)amino]-5,6,8,9-tetrahydro-4H-indolo[1′,2′:4,5][1,4]diazepino[6,7,1-ij]quinoline-12-carboxylic acid]
24 | 3.35 nM | NCCC1CCN2CCn3c(c(C4CCCCC4)c4ccc(C(=O)O)cc43)-c3cccc1c32 (centres unmarked) [Compound 301, 4-(2-aminoethyl)-15-cyclohexyl-5,6,8,9-tetrahydro-4H-indolo[1′,2′:4,5][1,4]diazepino[6,7,1-ij]quinoline-12-carboxylic acid]
25 | 6.81 nM | NCC[C@H]1CCN2CCn3c(c(C4CCCCC4)c4ccc(C(=O)O)cc43)-c3cccc1c32 [Compound 303]
26 | 9 nM | O=C(O)c1ccc2c(C3CCCCC3)c3n(c2c1)CCCn1cc(CNS(=O)(=O)C2CC2)c2cccc-3c21 [Compound 304, 12-Cyclohexyl-1-{[(cyclopropylsulfonyl)amino]methyl}-5,6-dihydro-4H-[1,5]diazocino[1,2-a:5,4,3-h′i′]diindole-9-carboxylic acid]
27 | 8 nM | CCN(CC)Cc1c(C(=O)N(C)C)n2c3c(cccc13)-c1c(C3CCCCC3)c3ccc(C(=O)O)cc3n1CCC2 [Compound 306]
28 | 4 nM | CN(C)C(=O)c1c(CN2CCCCC2)c2cccc3c2n1CCCn1c-3c(C2CCCCC2)c2ccc(C(=O)O)cc21 [Compound 307]
29 | 7 nM | CN(C)C(=O)c1c(CNC2CCOCC2)c2cccc3c2n1CCCn1c-3c(C2CCCCC2)c2ccc(C(=O)O)cc21 [Compound 308]
30 | 6 nM | CN(C)C(=O)c1c(CN2CCCC2)c2cccc3c2n1CCCn1c-3c(C2CCCCC2)c2ccc(C(=O)O)cc21 [Compound 309]
31 | 6 nM | CN(C)C(=O)c1c(CNS(=O)(=O)C2CC2)c2cccc3c2n1CCCn1c-3c(C2CCCCC2)c2ccc(C(=O)O)cc21 [Compound 310]
32 | 5 nM | CN(C)C(=O)c1c(CN2CCOCC2)c2cccc3c2n1CCCn1c-3c(C2CCCCC2)c2ccc(C(=O)O)cc21 [Compound 311]
33 | 4 nM | CCN(C)Cc1c(C(=O)N(C)C)n2c3c(cccc13)-c1c(C3CCCCC3)c3ccc(C(=O)O)cc3n1CC2 [Compound 312]
34 | 2 nM | CC(C)N1CCCC[C@H]1C(=O)N(C)Cc1c(C(=O)N(C)C)n2c3c(cccc13)-c1c(C3CCCCC3)c3ccc(C(=O)O)cc3n1CCC2 [Compound 313]
35 | 11 nM | CN(C)C(=O)c1c(CN(C)C(=O)C(C)(C)N2CCCC2)c2cccc3c2n1CCCn1c-3c(C2CCCCC2)c2ccc(C(=O)O)cc21 [Compound 314]
36 | 2 nM | CCN(C)Cc1c(C(=O)N(C)C)n2c3c(cccc13)-c1c(C3CCCCC3)c3ccc(C(=O)NS(=O)(=O)N(C)C)cc3n1CCC2 [Compound 315]
37 | 5 nM | CCN(C)Cc1c(C(=O)N(C)C)n2c3c(cccc13)-c1c(C3CCCCC3)c3ccc(C(=O)NS(=O)(=O)C4CC4)cc3n1CCC2 [Compound 316]
38 | 5 nM | CCN(C)Cc1c(C(=O)N(CC)CC)n2c3c(cccc13)-c1c(C3CCCCC3)c3ccc(C(=O)O)cc3n1CCC2 [Compound 317]
39 | 9 nM | CCN(C)Cc1c(C(=O)N2CCN(S(C)(=O)=O)CC2)n2c3c(cccc13)-c1c(C3CCCCC3)c3ccc(C(=O)O)cc3n1CCC2 [Compound 318]
40 | 11 nM | CCN(C)Cc1c(C(=O)NC2CC2)n2c3c(cccc13)-c1c(C3CCCCC3)c3ccc(C(=O)O)cc3n1CCC2 [Compound 319]
41 | 3 nM | CCN(C)Cc1c(C(=O)N2CCCC2)n2c3c(cccc13)-c1c(C3CCCCC3)c3ccc(C(=O)O)cc3n1CCC2 [Compound 320]
42 | 8 nM | CCN(C)Cc1c(C(=O)NS(=O)(=O)N(C)C)n2c3c(cccc13)-c1c(C3CCCCC3)c3ccc(C(=O)O)cc3n1CCC2 [Compound 321]
43 | 9 nM | CCN(C)Cc1c(C(=O)NS(=O)(=O)C2CC2)n2c3c(cccc13)-c1c(C3CCCCC3)c3ccc(C(=O)O)cc3n1CCC2 [Compound 322]

Row | Structure (SMILES) | IC50
44 | CC(C)(C)OC(=O)N[C@H]1CCN2CCn3c(c(C4CCCCC4)c4ccc(C(=O)O)cc43)-c3cccc1c32 [Compound 295, (4S)-4-[(tert-butoxycarbonyl)amino]-15-cyclohexyl-5,6,8,9-tetrahydro-4H-indolo[1′,2′:4,5][1,4]diazepino[6,7,1-ij]quinoline-12-carboxylic acid] | 8.47 nM
